Reference: US7649092B2, “Urea derivatives as calcium channel blockers” (Neuromed Pharmaceuticals Ltd., priority 2004, dated 2010)
Read-outs that look alike come from different tables or passages of the source.

Legend:
[1] = biological target: T1, human DiG T-type channels (Homo sapiens, UniProt O43497); experiment: T-type calcium channel block, whole-cell patch clamp in HEK cell lines; type: cell-based
T1 construct: expressed in transfected cells
Description: Standard patch-clamp techniques were employed to identify blockers of T-type currents. Briefly, previously described HEK cell lines stably expressing human DiG T-type channels were used for all the recordings (passage #: 4-20, 37° C., 5% CO2). To obtain T-type currents, plastic dishes containing semi-confluent cells were positioned on the stage of a ZEISS AXIOVERT S100 microscope after replacing the culture medium with external solution (see below). Whole-cell patches were obtained using pipettes (borosilicate glass with filament, O.D.: 1.5 mm, I.D.: 0.86 mm, 10 cm length), fabricated on a SUTTER P-97 puller with resistance values of ˜5 MΩ (see below for internal solution).
In the non-inactivating protocol, the holding potential is set at −110 mV and with a pre-pulse at −100 mV for 1 second prior to the test pulse at −40 mV for 50 ms. […]
Test compounds were dissolved in external solution, 0.1-0.01% DMSO. After ˜10 min rest, they were applied by gravity close to the cell using a WPI microfil tubing. The “non-inactivated” pre-pulse was used to examine the resting block of a compound. The “inactivated” protocol was employed to study voltage-dependent block. However, the initial data shown below were mainly obtained using the non-inactivated protocol only. IC50 values are shown for various compounds of the invention in Table 5.

[2] = biological target: T2, rat brain N-type calcium channel subunits (α1B+α2δ+β1b cDNA subunits) (Rattus norvegicus, UniProt Q02294); experiment: N-type calcium channel block, whole cell patch clamp in HEK 293 cells; type: cell-based; settings: holding potential −80 mV to +10 mV
T2 construct: expressed in transfected cells
Description: N-type calcium channel blocking activity was assayed in human embryonic kidney cells, HEK 293, stably transfected with the rat brain N-type calcium channel subunits (α1B+α2δ+β1b cDNA subunits). Alternatively, N-type calcium channels (α1B+α2δ+β1b cDNA subunits), L-type channels (α1C+α2δ+β1b cDNA subunits) and P/Q-type channels (α1A+α2δ+β1b cDNA subunits) were transiently expressed in HEK 293 cells. Briefly, cells were cultured in Dulbecco's modified eagle medium (DMEM) supplemented with 10% fetal bovine serum, 200 U/ml penicillin and 0.2 mg/ml streptomycin at 37° C. with 5% CO2. At 85% confluency cells were split with 0.25% trypsin/1 mM EDTA and plated at 10% confluency on glass coverslips. At 12 hours the medium was replaced and the cells transiently transfected using a standard calcium phosphate protocol and the appropriate calcium channel cDNA's. Fresh DMEM was supplied and the cells transferred to 28° C./5% CO2. Cells were incubated for 1 to 2 days prior to whole cell recording.
Whole cell patch clamp experiments were performed using an Axopatch 200B amplifier (Axon Instruments, Burlingame, Calif.) linked to a personal computer equipped with pCLAMP software. The external and internal recording solutions contained, respectively, 5 mM BaCl2, 10 mM MgCl2, 10 mM HEPES, 40 mM TEAC1, 10 mM glucose, 87.5 mM CsCl (pH 7.2) and 108 mM CsMS, 4 mM MgCl2, 9 mM EGTA, 9 mM HEPES (pH 7.2). Currents were typically elicited from a holding potential of −80 mV to +10 mV using Clampex software (Axon Instruments). Typically, currents were first elicited with low frequency stimulation (0.067 Hz) and allowed to stabilize prior to application of the compounds. The compounds were then applied during the low frequency pulse trains for two to three minutes to assess tonic block, and subsequently the pulse frequency was increased to 0.2 Hz to assess frequency dependent block. Data were analyzed using Clampfit (Axon Instruments) and SigmaPlot 4.0 (Jandel Scientific).

rat formalin model = experiment: Formalin-induced pain model (paw flinches); type: in vivo; settings: 30 mg/kg IP, 10 min before formalin, ±SEM, saline control=100%
Description: The effects of intrathecally delivered compounds of the invention on the rat formalin model were measured. The compounds were reconstituted to stock solutions of approximately 10 mg/ml in propylene glycol. Eight Holtzman male rats of 275-375 g size were randomly selected per test article.
The following study groups were used, with test article, vehicle control (propylene glycol) and saline delivered intraperitoneally (IP):
Prior to initiation of drug delivery baseline behavioral and testing data were taken.
On the morning of testing, a small metal band (0.5 g) was loosely placed around the right hind paw. The rat was placed in a cylindrical Plexiglas chamber for adaptation a minimum of 30 minutes. Test Article or Vehicle Control Article was administered 10 minutes prior to formalin injection (50 μl of 5% formalin) into the dorsal surface of the right hind paw of the rat. The animal was then placed into the chamber of the automated formalin apparatus where movement of the formalin injected paw was monitored and the number of paw flinches tallied by minute over the next 60 minutes (Malmberg, A. B., et al., Anesthesiology (1993) 79:270-281).
Results are presented as Maximum Possible Effect ±SEM, where saline control=100%.

[3] = inactivation protocol, @ −80 mV, read-out: IC50 @ −80 mV
[4] = non-inactivating protocol, pre-pulse −100 mV, test pulse −40 mV, read-out: IC50 @ −100 mV
[5] = low frequency stimulation 0.067 Hz (tonic block), read-out: IC50 @ 0.067 Hz
[6] = pulse frequency 0.2 Hz (frequency dependent block), read-out: IC50 @ 0.2 Hz

T1 sequence (O43497 whole entry): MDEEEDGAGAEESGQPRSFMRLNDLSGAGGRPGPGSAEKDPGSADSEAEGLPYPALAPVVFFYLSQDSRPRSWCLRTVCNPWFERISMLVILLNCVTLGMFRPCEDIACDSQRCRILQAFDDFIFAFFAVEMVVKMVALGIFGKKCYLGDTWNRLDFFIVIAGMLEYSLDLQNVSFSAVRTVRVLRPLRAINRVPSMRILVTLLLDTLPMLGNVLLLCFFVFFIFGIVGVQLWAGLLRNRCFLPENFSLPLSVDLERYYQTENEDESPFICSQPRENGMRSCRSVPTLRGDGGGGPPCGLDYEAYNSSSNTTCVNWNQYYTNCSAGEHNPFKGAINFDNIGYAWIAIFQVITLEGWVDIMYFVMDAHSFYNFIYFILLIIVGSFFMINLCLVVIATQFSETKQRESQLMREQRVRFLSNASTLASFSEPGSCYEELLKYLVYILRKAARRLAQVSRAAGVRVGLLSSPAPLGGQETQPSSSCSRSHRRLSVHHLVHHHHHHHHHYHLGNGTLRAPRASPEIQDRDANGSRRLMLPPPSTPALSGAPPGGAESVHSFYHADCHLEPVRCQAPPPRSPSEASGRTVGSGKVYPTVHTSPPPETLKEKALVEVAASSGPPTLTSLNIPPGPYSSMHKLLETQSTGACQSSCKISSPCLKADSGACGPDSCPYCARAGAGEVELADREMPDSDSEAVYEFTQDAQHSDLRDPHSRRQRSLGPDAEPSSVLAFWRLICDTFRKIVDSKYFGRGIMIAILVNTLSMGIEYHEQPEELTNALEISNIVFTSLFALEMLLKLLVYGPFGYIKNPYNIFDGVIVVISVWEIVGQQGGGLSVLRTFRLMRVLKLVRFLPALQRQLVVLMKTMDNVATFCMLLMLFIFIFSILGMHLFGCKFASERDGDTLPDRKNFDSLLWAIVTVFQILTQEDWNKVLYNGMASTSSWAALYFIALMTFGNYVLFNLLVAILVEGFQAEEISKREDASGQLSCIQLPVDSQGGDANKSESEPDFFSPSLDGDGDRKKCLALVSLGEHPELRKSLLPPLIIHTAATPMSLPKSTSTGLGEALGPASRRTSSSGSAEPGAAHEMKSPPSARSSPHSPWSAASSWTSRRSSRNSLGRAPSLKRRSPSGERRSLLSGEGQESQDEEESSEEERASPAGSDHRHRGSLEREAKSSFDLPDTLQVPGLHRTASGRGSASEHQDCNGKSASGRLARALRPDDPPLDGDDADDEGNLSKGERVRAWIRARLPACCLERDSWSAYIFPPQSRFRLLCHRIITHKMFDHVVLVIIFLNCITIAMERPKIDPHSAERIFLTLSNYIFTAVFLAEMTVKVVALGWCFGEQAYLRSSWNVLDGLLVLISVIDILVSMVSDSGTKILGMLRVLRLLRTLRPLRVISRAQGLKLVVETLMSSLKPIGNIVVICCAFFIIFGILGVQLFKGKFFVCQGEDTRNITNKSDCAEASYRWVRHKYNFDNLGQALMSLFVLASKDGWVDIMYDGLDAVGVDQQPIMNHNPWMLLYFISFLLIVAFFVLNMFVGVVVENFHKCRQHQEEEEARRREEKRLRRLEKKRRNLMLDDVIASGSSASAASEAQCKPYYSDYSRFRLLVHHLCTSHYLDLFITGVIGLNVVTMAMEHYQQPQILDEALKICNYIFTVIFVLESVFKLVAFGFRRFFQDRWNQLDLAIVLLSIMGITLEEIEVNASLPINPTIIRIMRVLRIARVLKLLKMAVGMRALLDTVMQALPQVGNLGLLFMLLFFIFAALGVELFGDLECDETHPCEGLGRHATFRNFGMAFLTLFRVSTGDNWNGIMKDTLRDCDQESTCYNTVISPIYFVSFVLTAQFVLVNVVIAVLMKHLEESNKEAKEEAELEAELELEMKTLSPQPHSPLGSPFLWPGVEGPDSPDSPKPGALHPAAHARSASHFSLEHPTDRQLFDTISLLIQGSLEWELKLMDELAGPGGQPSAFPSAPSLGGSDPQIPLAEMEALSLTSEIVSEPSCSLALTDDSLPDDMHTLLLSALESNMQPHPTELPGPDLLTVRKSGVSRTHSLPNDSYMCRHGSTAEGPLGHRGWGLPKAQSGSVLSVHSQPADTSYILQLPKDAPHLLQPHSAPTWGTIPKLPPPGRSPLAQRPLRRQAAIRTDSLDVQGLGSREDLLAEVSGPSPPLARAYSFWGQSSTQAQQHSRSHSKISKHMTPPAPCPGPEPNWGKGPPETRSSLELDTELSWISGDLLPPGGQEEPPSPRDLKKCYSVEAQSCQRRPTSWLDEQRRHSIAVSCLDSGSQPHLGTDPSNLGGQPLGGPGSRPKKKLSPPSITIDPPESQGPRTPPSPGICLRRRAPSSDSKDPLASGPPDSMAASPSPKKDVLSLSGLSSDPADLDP

SMILES | IC50 [1, 3] | IC50 [1, 4] | IC50 [2, 5] | IC50 [2, 6] | Phase I (% MPE) (rat formalin model) | Phase II Total (% MPE) (rat formalin model) | Phase IIA (% MPE) (rat formalin model) | Phase IIB (% MPE) (rat formalin model)
O=C(NC(c1ccccc1)c1ccccc1)N1CCN(C(c2ccccc2)c2ccc(Cl)cc2Cl)CC1 (stereo not drawn) [Compound 2, 4-[(2,4-Dichloro-phenyl)-phenyl-methyl]-piperazine-1-carboxylic acid benzhydryl-amide] | 66 nM | 221 nM | 1480 nM | 1480 nM |  |  |  | 
Cc1ccc(C(c2ccccc2)N2CCN(C(=O)NC(c3ccccc3)c3ccccc3)CC2)c(C)c1 (stereo not drawn) [Compound 3] | 28 nM | 75 nM | 2710 nM | 2710 nM |  |  |  | 
O=C(NC(c1ccccc1)c1ccccc1)N1CCN(C(c2ccccc2)c2ccc(Cl)cc2)CC1 (stereo not drawn) [Compound 4, 4-[(4-Chloro-phenyl)-phenyl-methyl]-piperazine-1-carboxylic acid benzhydryl-amide] | 56 nM | 171 nM | 290 nM | 280 nM | 71 ± 15 % MPE | 74 ± 11 % MPE | 70 ± 13 % MPE | 88 ± 9 % MPE
O=C(NC(c1ccccc1)c1ccccc1)N1CCN(C(c2ccccc2)c2cccc(Cl)c2)CC1 (stereo not drawn) [Compound 5, 4-[(3-Chloro-phenyl)-phenyl-methyl]-piperazine-1-carboxylic acid benzhydryl-amide] | 53 nM | 242 nM | 390 nM | 340 nM | 54 ± 11 % MPE | 65 ± 10 % MPE | 52 ± 10 % MPE | 105 ± 13 % MPE
O=C(NC(c1ccccc1)c1ccccc1)N1CCN(C(c2ccccc2)c2ccccc2Cl)CC1 (stereo not drawn) [Compound 6, 4-[(2-Chloro-phenyl)-phenyl-methyl]-piperazine-1-carboxylic acid benzhydryl-amide] | 47 nM | 147 nM | 280 nM | 180 nM | 53 ± 10 % MPE | 71 ± 7 % MPE | 63 ± 9 % MPE | 99 ± 5 % MPE
O=C(NC(c1ccccc1)c1ccccc1)N1CCN(C(c2ccccc2)c2cccc(Cl)c2Cl)CC1 (stereo not drawn) [Compound 7, 4-[(2,3-Dichloro-phenyl)-phenyl-methyl]-piperazine-1-carboxylic acid benzhydryl-amide] | 324 nM | 4200 nM | 230 nM | 200 nM | 61 ± 6 % MPE | 71 ± 7 % MPE | 63 ± 9 % MPE | 85 ± 20 % MPE
CN1CCC(CN2CCN(C(=O)NC(c3ccccc3)c3ccccc3)CC2)CC1 [Compound 10, 4-(1-Methyl-piperidin-4-yl-methyl)-piperazine-1-carboxylic acid benzhydryl-amide] | 20000 nM | 20000 nM | 260 nM | 260 nM |  |  |  | 
CN(C)CCCN1CCN(C(=O)NC(c2ccccc2)c2ccccc2)CC1 [Compound 11, 4-(3-Dimethylamino-propyl)-piperazine-1-carboxylic acid benzhydryl-amide] |  |  | 2170 nM | 990 nM | 59 ± 13 % MPE | 60 ± 12 % MPE | 50 ± 14 % MPE | 94 ± 22 % MPE
CN1CCCC(CN2CCN(C(=O)NC(c3ccccc3)c3ccccc3)CC2)C1 (stereo not drawn) [Compound 12, 4-(1-Methyl-piperidin-3-ylmethyl)-piperazine-1-carboxylic acid benzhydryl-amide] |  |  | 1700 nM | 490 nM |  |  |  | 
CN1CCC(C(c2ccccc2)N2CCN(C(=O)NC(c3ccccc3)c3ccccc3)CC2)CC1 (stereo not drawn) [Compound 20, 4-[(1-Methyl-piperidin-4-yl)-phenyl-methyl]-piperazine-1-carboxylic acid benzhydryl-amide] | 3400 nM | 5100 nM |  |  |  |  |  | 
O=C(NC(c1ccccc1)c1ccccc1)N1CCN(CCN2CCCC2)CC1 [Compound 21] | 2000 nM | 15000 nM | 1000 nM | 1000 nM |  |  |  | 
CN1CCCC(C(c2ccccc2)N2CCN(C(=O)NC(c3ccccc3)c3ccccc3)CC2)C1 (stereo not drawn) [Compound 22, 4-[(1-Methyl-piperidin-3-yl)-phenyl-methyl]-piperazine-1-carboxylic acid benzhydryl-amide] |  |  | 6300 nM | 2150 nM |  |  |  | 
CN1CCC(C(c2ccc(Cl)cc2)N2CCN(C(=O)NC(c3ccccc3)c3ccccc3)CC2)CC1 (stereo not drawn) [Compound 24, 4-[(1-Methyl-piperidin-4-yl)-(4-chloro-phenyl)-methyl]-piperazine-1-carboxylic acid benzhydryl-amide] |  |  | 4310 nM | 2460 nM |  |  |  | 
CN1CCC[C@H]1CN1CCN(C(=O)NC(c2ccccc2)c2ccccc2)CC1 [Compound 25] |  |  | > 5900 nM |  |  |  |  | 
CN(C(=O)N1CCN(CCN2CCCC2)CC1)C(c1ccccc1)c1ccccc1 [Compound 32, 4-(2-pyrrolidin-1-ylethyl)-piperazine-1-carboxylic acid benzhydryl-methyl-amide] | > 6720 nM | > 23000 nM | > 20000 nM | > 8800 nM |  |  |  | 
O=C(NC(c1ccccc1)c1ccccc1)N1CCN(C(c2ccccc2)C2CCNCC2)CC1 (stereo not drawn) [Compound 35, 4-[Piperidin-4-yl-phenyl-methyl]-piperazine-1-carboxylic acid benzhydryl-amide] |  | 663 nM | 3470 nM | 2160 nM |  |  |  | 
Cc1ccc(C(C2CCN(C)CC2)N2CCN(C(=O)NC(c3ccccc3)c3ccccc3)CC2)c(C)c1 (stereo not drawn) [Compound 36, 4-[(1-Methyl-piperidin-4-yl)-(2,4-dimethyl-phenyl)-methyl]-piperazine-1-carboxylic acid benzhydryl-amide] | 1300 nM | 1900 nM |  |  |  |  |  | 
CN1CCC(C(c2ccccc2Cl)N2CCN(C(=O)NC(c3ccccc3)c3ccccc3)CC2)CC1 (stereo not drawn) [Compound 37, 4-[(1-Methyl-piperidin-4-yl)-(2-chloro-phenyl)-methyl]-piperazine-1-carboxylic acid benzhydryl-amide] |  |  | 1330 nM | 910 nM |  |  |  | 
CN1CCC(C(c2cccc(Cl)c2)N2CCN(C(=O)NC(c3ccccc3)c3ccccc3)CC2)CC1 (stereo not drawn) [Compound 38, 4-[(1-Methyl-piperidin-4-yl)-(3-chloro-phenyl)-methyl]-piperazine-1-carboxylic acid benzhydryl-amide] |  |  | 3310 nM | 1560 nM |  |  |  | 
CN(C(=O)N1CCN(C(c2ccccc2)c2ccccc2)CC1)C(c1ccccc1)c1ccccc1 [Compound 39, 4-(Diphenyl-methyl)-piperazine-1-carboxylic acid benzhydryl-methyl-amide] |  |  | 660 nM | 310 nM |  |  |  | 
